{"source": "paper PMC10301432", "about": "“Antiplasmodial, Trypanocidal, and Genotoxicity In Vitro Assessment of New Hybrid α,α-Difluorophenylacetamide-statin Derivatives” (Pharmaceuticals, 2023)", "key": {"CHO-K1 cells": {"tested_on": "CHO-K1 cells", "assay_type": "cell-based, Chinese Hamster", "protocol": "Fresh HepG2 and CHO-K1 cells were seeded at the density of 1 × 10^5 cells/mL into 24-well plates (1 mL/per well). The compounds 13 (a–d) were then added to the medium to final concentrations of 500, 1000 and 2000 µM and incubation continued for 3 h or 24 h. DMSO 10% was used as the negative control, and, BaP (80 µM) for HepG2 and MMC (5 µM) for CHO-K1 were the positive controls. After exposure to the compounds, the cells were incubated for more than 24 h under growth conditions before quantification of the micronuclei and cytotoxicity. The cytogenetic studies were carried out in triplicate as described previously (see [51]). In order to determine the mitotic index and the number of cells with micronuclei, the medium was replaced by a cold methanol-glacial acetic acid (3:1) fixative for 30 min, and the cells then rinsed with distilled water for 2 min and air dried. The fixed cells were stained with 4,6-diamidino-2-phenylindole (DAPI) ([…]) dissolved in McIlvaine buffer (0.1 M citric acid plus 0.2 M Na2HPO4, pH 7.0) for 60 min, washed with McIlvaine buffer for 5 min, briefly rinsed with distilled water and mounted in glycerol. To determine the mitotic index and the number of cells with micronuclei, 1000 cells per well (3000 cells per concentration) were analyzed under a fluorescence microscope. The results for micronuclei were presented as the percentage of cells containing micronuclei in the 3000 cells/concentration group analyzed. Cells that glowed brightly and had homogenous nuclei were considered as having normal phenotypic morphology. Apoptotic nuclei were identified by the condensed chromatin at the periphery of the nuclear membrane or by fragmented nuclear body morphology. Necrotic cells presented chromatin forms with irregularly shaped aggregates, a pyknotic nucleus (shrunken and darkly stained) and cell membrane disruption, with cellular debris spilled into the extracellular milieu. Once again, 3000 cells were counted and the percentage of viable cells was evaluated, discounting apoptotic and necrotic cells. Statistical differences between the groups were analyzed by two-way ANOVA (p < 0.01) and Tukey’s post hoc test."}, "in vitro [1]": {"assay": "in vitro", "settings": "Salmonella enterica serovar Typhimurium, pH 7.4"}, "[2]": {"tested_on": "Salmonella enterica serovar Typhimurium TA98", "assay": "Salmonella/microsome assay, TA98", "protocol": "(§1) Salmonella enterica serovar Typhimurium (S. typhimurium) strains TA97, TA98, TA100, TA104 and TA102 from the authors’ stock were used as described in the mutagenicity assay.\n(§2) To determine the cytotoxic effects, after 30 min pre-incubation, the assay mixtures were diluted in 0.9% NaCl (w/v) to obtain a suspension containing 2 × 10^2 cells/mL. […] The plates were then incubated at 37 °C for 24 h and the colonies counted. All the experiments were conducted in triplicate and were repeated at least twice. Statistical differences between the groups were analyzed by a two-way ANOVA (p < 0.05) and Tukey’s post hoc test."}, "[3]": {"tested_on": "trypomastigote forms of T. cruzi (Y strain)", "assay": "Trypanocidal activity on bloodstream trypomastigotes", "assay_type": "cell-based, Trypanosoma cruzi", "settings": "Trypanosoma cruzi; bloodstream trypomastigotes, Y strain; 24 h at 37 °C", "protocol": "Bloodstream trypomastigote forms (BT) of the Y strain were obtained from infected albino Swiss mice at the peak of parasitemia, isolated by differential centrifugation and resuspended in DMEM to a parasite concentration of 10^7 cells/mL in the presence of 10% of mouse blood. This suspension (100 µL) was added in the same volume of 13 (a–d) and 14 (a–d) previously prepared at twice the desired final concentrations."}, "[4]": {"tested_on": "Salmonella enterica serovar Typhimurium TA102"}, "[5]": {"tested_on": "Salmonella enterica serovar Typhimurium TA104", "assay": "Salmonella/microsome assay, TA104", "protocol": "as §1, §2"}, "[6]": {"assay": "Salmonella/microsome assay, TA104", "settings": "Salmonella enterica serovar Typhimurium", "protocol": "as §1, §2"}, "in vitro [7]": {"assay": "in vitro", "assay_type": "cell-based", "settings": "mouse", "protocol": "Primary cultures of cardiac cells (CC) were obtained as reported in [50]. The cultures were sustained in Dulbecco’s modified Eagle’s medium (DMEM) supplemented with 10% horse serum, 5% fetal bovine serum (FBS), 2.5 mM CaCl2, 1 mM L-glutamine, and 2% chicken embryo extract. Cell cultures were maintained at 37 °C in an atmosphere of 5% CO2, and assays were run at least three times in triplicate.\nCardiac cell cultures were incubated for 24 h at 37 °C with different concentrations of the compounds (up to 200 µM) diluted in DMEM (without phenol red). Their morphology and spontaneous contractibility were evaluated by light microscopy and then the cellular viability was determined by the PrestoBlue® assay. For this colorimetric bioassay, PrestoBlue® (Invitrogen, Waltham, MA, USA) was added to each well (using a 10:1 medium/dye), the plate was further incubated for 24 h followed by optical density (OD) measurement performed at 570 and 600 nm, as recommended by the manufacturer."}}, "note": "Read-outs that look alike come from different tables or passages of the source."}
{"molecule": "CC(=O)Nc1ccc(C)cc1C(F)(F)C(=O)NCC[C@@H]1C[C@H](CC(=O)OC(C)(C)C)OC(C)(C)O1", "note": "[Compound 13b, tert-Butyl 2-((4R,6R)-6-(2-(2-(2-acetamido-5-methylphenyl)-2,2-difluoroacetamido)ethyl)-2,2-dimethyl-1,3-dioxan-4-yl)acetate]", "values": [{"measurement": "mitotic index", "setting": "CHO-K1 cells", "result": "did not affect the mitotic index"}, {"measurement": "CC50", "setting": "in vitro [1]", "result": "> 1500", "unit": "µM"}, {"measurement": "revertant His+ colonies TA98", "setting": "[2]; +S9, 3 µM", "result": "27 ± 5"}, {"measurement": "revertant His+ colonies TA98", "setting": "[2]; +S9, 15 µM", "result": "27 ± 1"}, {"measurement": "revertant His+ colonies TA98", "setting": "[2]; +S9, 30 µM", "result": "27 ± 5"}, {"measurement": "revertant His+ colonies TA98", "setting": "[2]; +S9, 150 µM", "result": "27 ± 5"}, {"measurement": "revertant His+ colonies TA98", "setting": "[2]; +S9, 300 µM", "result": "39 ± 1"}, {"measurement": "revertant His+ colonies TA98", "setting": "[2]; +S9, 1500 µM", "result": "45 ± 4"}, {"measurement": "revertant His+ colonies TA98", "setting": "[2]; −S9, 3 µM", "result": "18 ± 2"}, {"measurement": "revertant His+ colonies TA98", "setting": "[2]; −S9, 15 µM", "result": "19 ± 3"}, {"measurement": "revertant His+ colonies TA98", "setting": "[2]; −S9, 30 µM", "result": "21 ± 5"}, {"measurement": "revertant His+ colonies TA98", "setting": "[2]; −S9, 150 µM", "result": "22 ± 2"}, {"measurement": "revertant His+ colonies TA98", "setting": "[2]; −S9, 300 µM", "result": "22 ± 2"}, {"measurement": "revertant His+ colonies TA98", "setting": "[2]; −S9, 1500 µM", "result": "26 ± 4"}, {"measurement": "EC50", "setting": "[3]", "result": "> 500", "unit": "µM"}, {"measurement": "revertant His+ colonies TA102", "setting": "[4]; +S9, 3 µM", "result": "365 ± 37"}, {"measurement": "revertant His+ colonies TA102", "setting": "[4]; +S9, 15 µM", "result": "386 ± 42"}, {"measurement": "revertant His+ colonies TA102", "setting": "[4]; +S9, 30 µM", "result": "403 ± 19"}, {"measurement": "revertant His+ colonies TA102", "setting": "[4]; +S9, 150 µM", "result": "396 ± 31"}, {"measurement": "revertant His+ colonies TA102", "setting": "[4]; +S9, 300 µM", "result": "372 ± 40"}, {"measurement": "revertant His+ colonies TA102", "setting": "[4]; +S9, 1500 µM", "result": "399 ± 18"}, {"measurement": "revertant His+ colonies TA102", "setting": "[4]; −S9, 3 µM", "result": "388 ± 20"}, {"measurement": "revertant His+ colonies TA102", "setting": "[4]; −S9, 15 µM", "result": "393 ± 18"}, {"measurement": "revertant His+ colonies TA102", "setting": "[4]; −S9, 30 µM", "result": "423 ± 11"}, {"measurement": "revertant His+ colonies TA102", "setting": "[4]; −S9, 150 µM", "result": "503 ± 23"}, {"measurement": "revertant His+ colonies TA102", "setting": "[4]; −S9, 300 µM", "result": "543 ± 39"}, {"measurement": "revertant His+ colonies TA102", "setting": "[4]; −S9, 1500 µM", "result": "560 ± 41"}, {"measurement": "revertant His+ colonies TA104", "setting": "[5]; +S9, 3 µM", "result": "355 ± 12"}, {"measurement": "revertant His+ colonies TA104", "setting": "[5]; +S9, 15 µM", "result": "356 ± 14"}, {"measurement": "revertant His+ colonies TA104", "setting": "[5]; +S9, 30 µM", "result": "421 ± 67"}, {"measurement": "revertant His+ colonies TA104", "setting": "[5]; +S9, 150 µM", "result": "447 ± 45"}, {"measurement": "revertant His+ colonies TA104", "setting": "[5]; +S9, 300 µM", "result": "449 ± 18"}, {"measurement": "revertant His+ colonies TA104", "setting": "[5]; +S9, 1500 µM", "result": "510 ± 13"}, {"measurement": "revertant His+ colonies TA104", "setting": "[5]; −S9, 3 µM", "result": "210 ± 11"}, {"measurement": "revertant His+ colonies TA104", "setting": "[5]; −S9, 15 µM", "result": "267 ± 15"}, {"measurement": "revertant His+ colonies TA104", "setting": "[5]; −S9, 150 µM", "result": "326 ± 13"}, {"measurement": "revertant His+ colonies TA104", "setting": "[5]; −S9, 300 µM", "result": "350 ± 22"}, {"measurement": "revertant His+ colonies TA104", "setting": "[5]; −S9, 1500 µM", "result": "400 ± 11"}, {"measurement": "CC50 at 30 min", "setting": "[6]; S. typhimurium TA104 with S9 mix, LC50 (bacterial cytotoxicity) TA104, presence of S9 mix", "result": "> 1500", "unit": "µM"}, {"measurement": "CC50 at 30 min", "setting": "[6]; S. typhimurium TA104 without S9 mix, pH 7.4, LC50 (bacterial cytotoxicity) TA104, absence of S9 mix", "result": "> 1500", "unit": "µM"}, {"measurement": "CC50 at 24 h", "setting": "in vitro [7]", "result": "> 500", "unit": "µM"}]}
